Earlier results in patent publication US20070065542A1 (Board Of Regents, The University Of Texas System, priority 2005, published 2007).
Where two headings read alike, the source gives them in different places. Blank lines part the entries; values can stand above or below the compound they belong to.

Key:
[1] = soluble complexes of calcium, from literature
[2] = dissociation constant
[3] = soluble iron complexes and reference complexes, known values
[4] = very high concentration

- pK1 [2]: 6.1
- pK2 [2]: 10.3
Structure (SMILES): O=C(O)O [Carbonate anion]

- pK1 [2]: 3.87
Structure (SMILES): CC(O)C(=O)O (stereo not drawn) [Lactic Acid]

More lines, now with the values behind:

Structure (SMILES): O=C([O-])CC(O)C(=O)[O-].[Ca+2] (stereo not drawn) [CaMal]
- Stability constant [1]: 2.19

Structure (SMILES): O=C1O[C@H]([C@@H](O)CO)C(O)=C1O.[Fe+2] [Ferrous monohydrogen ascorbate]
- Stability constant [3]: 1.30

Structure (SMILES): [Cl][Fe]([Cl])[Cl] [ferric chloride]
- pH at which precipitation of iron occurred [4]: 3-4
